# Results from US6653306B1, “Epoxy-steroidal aldosterone antagonist and angiotensin II antagonist combination therapy” (G.D. Searle & Co., priority 1995, dated 2003).
# pIC50: −log10 of the molar value.
# Legend:
# [1] = test system: rabbit aortic rings; assay: Assay B: In vitro vascular smooth muscle response for AII (antagonist activity, pA2); assay type: cell-based; settings: Oryctolagus cuniculus, in vitro vascular smooth muscle response; two values per cell separated by / are separate determinations; read-out: Assay B pA2 (converted)
# Procedure, shortened: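 Endothelium-denuded thoracic aortic rings from male New Zealand white rabbits, in oxygenated Krebs at 37 °C under ~1 g tension; isometric contraction to AII (3×10^−10 to 1×10^−5 M).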
# [2] = target: angiotensin II AT1 receptor; assay: Assay A: Angiotensin II binding activity (125I-AII displacement, rat uterine membrane preparation)
# [3] = test system: pressor response to AII; assay: Assay C: In vivo intragastric pressor assay response for AII antagonists; design: species or system rat; settings: intragastric, or intraduodenal for examples listed
# Procedure, shortened: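 Conscious male Sprague-Dawley rats with arterial and venous catheters received 30 ng/kg i.v. angiotensin II boluses before and at 30–180 min after gavage of compound (standard 3 mg/kg in 0.5% methylcellulose). Pressor rise in mmHg measured; percent inhibition calculated versus averaged control response at each time point.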
# [4] = Rattus norvegicus, dose 3 mg/kg
SMILES,pIC50 [2],Kb [1] [nM],"inhibition at 100 mg/kg ([3]; Rattus norvegicus, dose 100 mg/kg) [%]",Assay C Duration ([3]; dose 100 mg/kg) [min],"inhibition at 3 mg/kg [3, 4] [%]",Assay C Duration ([3]; dose 3 mg/kg) [min],Assay C Inhibition ([3]; dose cell empty (dose not given)) [%]
CCCCc1cn(CCc2ccccc2)c(=O)n1Cc1ccc(-c2ccccc2-c2nnn[nH]2)cc1 [Compound 133],8.00,2,–,–,20,180,–
CCCCc1cn(-c2c(C)cccc2C)c(=O)n1Cc1ccc(-c2ccccc2-c2nnn[nH]2)cc1 [Compound 275],8.20,0.851,–,–,40,>180,–
CCCCc1cn(-c2ccccc2Cl)c(=O)n1Cc1ccc(-c2ccccc2-c2nnn[nH]2)cc1 [Compound 135],7.80,3.16,–,–,35,>180,–

# The next lines start with results.
pIC50 [2],SMILES,Kb [1] [nM],"inhibition at 100 mg/kg ([3]; Rattus norvegicus, dose 100 mg/kg) [%]",Assay C Duration ([3]; dose 100 mg/kg) [min],"inhibition at 3 mg/kg [3, 4] [%]",Assay C Duration ([3]; dose 3 mg/kg) [min],Assay C Inhibition ([3]; dose cell empty (dose not given)) [%]
6.14,CCCCc1nc2cnncc2n1Cc1ccc(-c2ccccc2C(=O)O)cc1 [Compound 108],5010,45,90,–,–,–
7.52,CCCCc1nn(CC(OCC(=O)O)c2ccccc2)c(=O)n1Cc1ccc(-c2ccccc2-c2nn[nH]n2)cc1 (stereo not shown) [Compound 91],2.51,–,–,–,–,40
